In article PMC10417336 (Animals : an Open Access Journal from MDPI, 2023):
Values joined by “and” are separate entries in the source; they are usually repeats but may differ in a detail not shown here. Equal values may be shown once. Read-outs that look alike come from different tables or passages of the source.

Tests used:
[1] = tested on: common carp (Cyprinus carpio); details: cited from earlier work
[2] = tested on: rainbow trout (Oncorhynchus mykiss); details: cited from earlier work
[3] = Table 1, source not given; cited from earlier work
[4] = tested on: Danio rerio; details: listed as SDZ; cited from earlier work
[5] = tested on: sea cucumbers (Apostichopus japonicus); details: cited from earlier work
[6] = tested on: lambari (Astyanax bimaculatus); details: for T1/2, half-life time: t1/2=ln2/Ke
Procedure: The feed used in the experiment was purchased commercially and contained 45% protein (GuabiTech, Campinas, SP, Brazil). The amount of ^14C SDZ (Sigma-Aldrich; Saint Louis, MO, USA, Hen- 5154X Riedel) used in the experiment was the one that gave the lowest reading signal in the liquid scintillation spectrometer. Thus, the amount of feed per fish was the equivalent of 1% of body weight, 12 mg·day^−1, totaling 3528 mg of feed contaminated with 5540.38 Bq of radioactive product. The feed was homogenized after the application of the ^14C SDZ to ensure that all of the drug was evenly distributed in the feed. For confirmation, seven 50 mg samples of contaminated feed were used for the liquid scintillation spectrometer reading.
The bioaccumulation and depletion study using lambari was conducted to evaluate how the elimination of the SDZ molecule works after treatment. The experiment was performed based on the guidelines of the Organization for Economic Cooperation and Development standard no. 305 [17] and VICH-FDA [18], with adaptations for the use of radiolabeled molecules.
The lambari fingerlings were acquired from a commercial fish farm, without distinction between male and female. A total of 100 healthy fish were placed in a tank with 200 L of (chlorine-free) water. The acclimatization took place over 15 days, during which the fish were fed three times daily with commercial fish food. The water temperature was maintained at 25 °C ± 1 °C and pH 7. Feeding of the fry was stopped 24 h before the experiment.
The tests were divided into two stages, seven days of exposure and seven days of depuration. After the acclimatization process, 84 fish (approximately 5 cm long and weighing approximately 1.0 to 1.4 g) were used in the experiment. The experiment was conducted in 8 L stainless steel tanks with three replicates and two controls, with 14 fish placed in each tank. The water temperature was maintained at 25 °C ± 1 °C, pH 7, under permanent aeration, with a 12 h photoperiod. Water temperature and pH were analyzed daily.
The exposure phase of the fish to the antibiotic lasted 7 consecutive days, during which the medicated feed was offered three times a day. Control fish were fed uncontaminated feed. For the depletion phase, the remaining lambaris were transferred to clean tanks with 4 L of water and fed uncontaminated feed three times a day. It is worth noting that one fish was randomly selected and sampled during the exposure (days 1, 2, 3, 4, 5, 6, and 7) and depletion (8, 9, 10, 11, 12, 13, and 14) periods of each tank; the selected lambari was euthanized with a 0.2 mg.mL^−1 benzocaine immersion bath and frozen for later analysis.
Fish samples were burned in the Oxidizer OX500 (RJ—Harvey Instrument Corporation, Buffalo, NY, USA) in an oxygen-rich atmosphere, where 10 mL of scintillation liquid (permafluor) was used per sample. Measurement was by liquid scintillation counting (LSC) with a Tri-Carb 2910 TR LSA counter (Perkin Elmer, Waltham, MA, USA).
On day 7 (the last day of bioaccumulation) and day 14 (the last day of depletion), the aquarium water was filtered through filter paper (Whatman 42) to collect background material (metabolic excrement). The analyses of the excreta were conducted in the same way as the procedures described for fish. In addition, water samples from each aquarium were sampled in triplicate at the exposure phase (beginning and end) to determine the radiolabeled molecule, using liquid scintillation counters (LSC) with a Tri-Carb 2910 TR LSA counter (Perkin Elmer).

Nc1ccc(S(=O)(=O)Nc2ncccn2)cc1 [Sulfadiazine, 4-Amino-N-(2-pyrimidinyl)benzenesulfonamide]
BCF [1]: 2.73 to 165.73 L/kg | BCF [2]: 4100 L/kg | concentration of SDZ in the organisms on the seventh day of depletion [2]: 1.0 × 10^−4 mg·g ^−1 | highest accumulation of SDZ in the organisms ([2]; day 4, SDZ fed in the diet 0.0330 μg·mg^−1): 5.10 × 10 ^−4 mg·g^−1 | Log P [3]: −0.09 | bioaccumulated amount of SDZ [4]: 4.15 Bq and 5.41 Bq | eliminated amount of SDZ [4]: 3.79 Bq and 5.21 Bq | BCF [5]: 2.1 to 891.5 L/kg | accumulated SDZ eliminated by the organisms ([6]; after two days of the depletion phase (7–9 days)): 93.12% | ke, elimination constant ([6]; column Bioaccumulation, model fit): 0.3956 day⁻¹ | A, pre-exponential term ([6]; column Depletion, model fit): 186.2 ng/g | ku, absorption constant ([6]; column Depletion, model fit): 0.6155 mL/g/day | T1/2, half-life time ([6]; column Depletion, listed as 14C-sulfadiazine): 1.126 days | T1/2, half-life time ([6]; column Depletion, listed as SDZ): 1.13 days | maximum (peak) concentration of SDZ in fish ([6]; day 7 of exposure, medicated feed 2.5 mg·g^−1 three times a day, listed as SDZ): 91.7 ng/g and 91.72 ng/g | concentration of SDZ in fish after depletion phase ([6]; day 13, end of experiment): 0.83 ng/g | accumulated 14C-SDZ eliminated by the fish ([6]; depletion phase period (7–13 days)): 93.12% | concentration of SDZ in excreta in the depletion period ([6]; depletion, abstract): 5.96 ng/g | concentration of SDZ in fish relative to the MRL ([6]; during exposure (bioaccumulation) and elimination (depletion) phases): < 100 ng/g | concentration of SDZ in excreta (sediment), elimination (depletion) phase ([6]; elimination 7–13 days): 5.9e-06 mg/g | concentration of SDZ in the water, depletion phase ([6]; elimination 7–13 days): 25 pg/mL | concentration of SDZ in excreta after the bioaccumulation period ([6]; end of exposure phase, abstract): 363.5 ng/g | concentration of SDZ in excreta (sediment), exposure phase (Bioaccumulation) ([6]; exposure 1–7 days): 0.00036 mg/g | concentration of SDZ in the water, end of exposure phase (Bioaccumulation) ([6]; exposure 1–7 days): 4.6 ng/mL | bioconcentration factor (BCF) ([6]; lambari, BCF=Ca/Cw): 20 L/kg | SDZ applied in the diet bioaccumulated in the fish (mass balance) ([6]; mass balance): 0.21% | SDZ applied in the diet remaining in the excreta (mass balance) ([6]; mass balance): 0.69% | SDZ applied in the diet remaining in the water (mass balance) ([6]; mass balance): 115%
